Results reported in PubChem BioAssay (NCI).
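Method: 48-hour compound exposure of cells in 96-well plates, five concentrations, linear interpolation of endpoints. At the GI50, growth is halved. At the TGI there is no net growth.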

Tests used:
Experiment in all cases: NCI-60 cell line screen, 48 h
CAKI-1 renal = system: CAKI-1 renal
HCC-2998 colon = system: HCC-2998 colon
HOP-62 NSCLC = system: HOP-62 NSCLC
KM12 colon = system: KM12 colon
LOX IMVI melanoma = system: LOX IMVI melanoma
MDA-MB-231 breast = system: MDA-MB-231 breast
MDA-N = system: MDA-N
MOLT-4 leukemia = system: MOLT-4 leukemia
NCI-H226 lung = system: NCI-H226 lung
NCI-H23 lung = system: NCI-H23 lung
NCI-H460 lung = system: NCI-H460 lung
NCI-H522 lung = system: NCI-H522 lung
SF-268 CNS = system: SF-268 CNS
SF-539 CNS = system: SF-539 CNS
SK-MEL-28 melanoma = system: SK-MEL-28 melanoma
SN12C renal = system: SN12C renal
SR leukemia = system: SR leukemia
SK-OV-3 ovarian = system: SK-OV-3 ovarian

Structure (SMILES) | TGI (CAKI-1 renal) [µM] | TGI (HCC-2998 colon) [µM] | TGI (HOP-62 NSCLC) [µM] | TGI (KM12 colon) [µM] | TGI (LOX IMVI melanoma) [µM] | TGI (MDA-MB-231 breast) [µM] | TGI (MDA-N) [µM] | TGI (MOLT-4 leukemia) [µM] | TGI (NCI-H226 lung) [µM] | TGI (NCI-H23 lung) [µM] | TGI (NCI-H460 lung) [µM] | TGI (NCI-H522 lung) [µM] | TGI (SF-268 CNS) [µM] | TGI (SF-539 CNS) [µM] | TGI (SK-MEL-28 melanoma) [µM] | TGI (SN12C renal) [µM] | TGI (SR leukemia) [µM] | TGI (SK-OV-3 ovarian) [µM] | GI50 (MDA-MB-231 breast) [µM] | GI50 (SF-539 CNS) [µM]
COc1cc(C=Nc2ccc(Oc3ccc(Cl)cc3)c(Cl)c2)cc(OC)c1OC | 72 | 40.3 | 49 | 38.1 | 32.2 | 35 | 51.3 | 76 | 80.9 | 42 | 39.9 | 28.1 | 30.5 | 35.2 | 53.8 | 40.3 | 54.1 |  |  | 
COc1cc(OC)cc(N(C)Cc2cnc3nc(N)nc(N)c3c2C)c1 | > 100 | > 100 | > 36.1 | > 100 | > 100 | > 100 | > 100 | > 100 | > 100 | > 100 | > 100 | 43.6 | > 100 | 4.96 | > 100 | > 100 | > 100 | > 100 |  | 
CCOC(=O)C1C(=O)C=C(c2cc(C)ccc2O)CC1c1cccc(Br)c1 (stereo unspecified) | 80.5 | 34.6 | > 100 | 47.4 | 32.1 | 48.4 | 21.2 | 43.7 | 37.3 | 46.5 | 50.6 | 35.1 | 77.9 | 35.2 |  | 33.1 | 25.4 | 43.1 |  | 
Fc1ccccc1N=c1oc2ccc(Br)cc2cc1-c1nc2ccccc2[nH]1 | 35.8 | > 35.2 | 28.1 | > 54.9 | > 31.2 | 25.8 | > 42.6 | > 100 | 17.6 | 29.8 | > 76.6 | 6.82 | 21 | 4.58 | > 76.2 | > 41.1 | > 100 | 32.9 |  | 
C=C(Cl)C(Cl)(CBr)CCC(Cl)C(C)C (stereo unspecified) | 5.74 | 15.2 | 2.94 | 6.11 | 26.2 | 9.99 | 16.3 | > 62.9 | > 65.5 | 50 | 5.47 | 15.8 | 11.5 | 2.59 | 5.62 | 33.2 | > 54.7 | > 89.5 |  | 
CC(C)NC(=O)OCc1c(COC(=O)NC(C)C)c(-c2ccc[n+](COC(=O)C3CCCCC3)c2)n2c1CCC2 | 68.6 | > 100 | > 100 | > 100 | > 100 | > 100 | > 100 | > 100 | > 100 | > 100 | > 100 | 58 | > 100 | > 100 | > 100 | > 100 | > 100 | > 100 |  | 
CCC(c1ccc(N(C)C)cc1)C1NC(=S)NC1=O (stereo unspecified) | > 100 | > 100 |  | > 100 | > 100 | > 100 | > 100 | > 100 | > 100 | > 100 | > 100 | > 100 | > 100 | > 100 | > 100 | > 100 | > 100 | > 100 |  | 
CC(=O)CC(=O)Nn1c(-c2cccs2)nc2ccc(I)cc2c1=O | > 74 | > 67.4 | > 100 | > 100 | > 90 | 63.7 | > 100 | > 100 | > 76.4 | > 100 | > 100 | > 87.5 | > 100 | 34.4 | > 100 | > 100 | > 100 | > 100 | 16.4 | 13.8
CCOc1c(OC)cc(CNNc2nccs2)cc1OC | > 100 | > 100 | > 100 | > 100 | > 100 | > 100 | > 100 | > 100 | > 100 | > 100 | > 100 | > 100 | > 100 | > 100 | > 100 | > 100 | > 100 |  |  | 
C=CC(C)(C)c1cc([C@@H]2COc3cc(O)ccc3C2=O)c(O)c(OC)c1OC |  | 34.3 |  | 27.8 | 37.9 | 37.9 | 26 | > 100 | 38.9 | 27.2 | 41.7 | 20.9 | 51 | 44 | 52.6 | 31.3 | > 100 | 36.7 |  | 
